Columns and labels:
[1] = In vivo pharmacokinetic property study in male SD rats; details: Sprague-Dawley, rat, plasma
Description: Objective: This study was intended to determine the pharmacokinetic parameters of the compounds in male SD rats.
Sprague Dawley rats (Male, 200-300 g, 7-9 weeks old, Shanghai SLAC)
In the project, 4 male SD rats were used. One group of 2 SD rats were dosed by intravenous injection at 0.3 mg/kg, 0.15 mg/mL and another group of 2 SD rats were orally dosed at 1 mg/kg, 0.2 mg/mL. Plasma samples were collected at 0.083 h (the intravenous injection group only), 0.25 h, 0.5 h, 1 h, 2 h, 4 h, 6 h, 8 h, 12 h, and 24 h after the dosing and then subjected to LC-MS/MS analysis, and data were recorded. Relevant pharmacokinetic parameters were calculated using the Phoenix WinNonlin 6.3 software based on the recorded data.

[2] = Tissue distribution study in rats, oral administration; assay type: in vivo, Sprague Dawley rats; details: male SD rats, po 1 mg/kg; samples at 2, 6, 12 h
Description: Objective: This study was intended to test the distribution ratio of the compounds in plasma, heart, cerebrospinal fluid, and brain tissue in the case of oral administration.
Sprague Dawley Rats (Male, 200-300 g, 7-9 Weeks Old, Shanghai SLAC)
In the project, 6 male SD rats were orally dosed at 1 mg/kg, 0.2 mg/mL. Samples of cerebrospinal fluid, brain, heart tissue, and plasma were collected at 2 h, 6 h, and 12 h after the dosing and then subjected to LC-MS/MS analysis, and data were recorded. Relevant pharmacokinetic parameters were calculated using the Phoenix WinNonlin 6.3 software based on the recorded data.

sGC = target: T1, sGC (Homo sapiens, UniProt Q02153); experiment: LNCap cell-based cGMP expression assay (HTRF); details: minimum effective concentration to stimulate cGMP production (three times greater than the basal value) in lnCap cells; DETA-NO added
T1 construct: endogenous in cells; host or cells: LNCaP cells (14th passage), no transfection described
T1 sequence (Q02153 1-619): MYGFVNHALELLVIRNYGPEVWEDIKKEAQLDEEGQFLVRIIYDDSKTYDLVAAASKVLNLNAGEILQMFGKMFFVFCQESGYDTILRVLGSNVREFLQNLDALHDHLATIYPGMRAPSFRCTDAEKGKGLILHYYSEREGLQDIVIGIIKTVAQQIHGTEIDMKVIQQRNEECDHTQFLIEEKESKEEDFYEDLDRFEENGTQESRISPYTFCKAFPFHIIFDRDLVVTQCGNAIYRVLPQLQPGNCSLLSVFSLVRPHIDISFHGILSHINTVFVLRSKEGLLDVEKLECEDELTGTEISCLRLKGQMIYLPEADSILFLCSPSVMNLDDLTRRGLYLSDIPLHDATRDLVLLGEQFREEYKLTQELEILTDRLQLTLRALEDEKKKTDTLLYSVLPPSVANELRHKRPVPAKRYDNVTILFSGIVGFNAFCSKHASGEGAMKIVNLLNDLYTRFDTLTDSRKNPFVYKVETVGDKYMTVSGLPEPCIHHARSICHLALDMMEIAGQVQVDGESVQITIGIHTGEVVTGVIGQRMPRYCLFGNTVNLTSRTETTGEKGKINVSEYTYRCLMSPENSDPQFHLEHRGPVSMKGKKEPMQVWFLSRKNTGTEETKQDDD
T1 sequence (Q02108 1-690 partner): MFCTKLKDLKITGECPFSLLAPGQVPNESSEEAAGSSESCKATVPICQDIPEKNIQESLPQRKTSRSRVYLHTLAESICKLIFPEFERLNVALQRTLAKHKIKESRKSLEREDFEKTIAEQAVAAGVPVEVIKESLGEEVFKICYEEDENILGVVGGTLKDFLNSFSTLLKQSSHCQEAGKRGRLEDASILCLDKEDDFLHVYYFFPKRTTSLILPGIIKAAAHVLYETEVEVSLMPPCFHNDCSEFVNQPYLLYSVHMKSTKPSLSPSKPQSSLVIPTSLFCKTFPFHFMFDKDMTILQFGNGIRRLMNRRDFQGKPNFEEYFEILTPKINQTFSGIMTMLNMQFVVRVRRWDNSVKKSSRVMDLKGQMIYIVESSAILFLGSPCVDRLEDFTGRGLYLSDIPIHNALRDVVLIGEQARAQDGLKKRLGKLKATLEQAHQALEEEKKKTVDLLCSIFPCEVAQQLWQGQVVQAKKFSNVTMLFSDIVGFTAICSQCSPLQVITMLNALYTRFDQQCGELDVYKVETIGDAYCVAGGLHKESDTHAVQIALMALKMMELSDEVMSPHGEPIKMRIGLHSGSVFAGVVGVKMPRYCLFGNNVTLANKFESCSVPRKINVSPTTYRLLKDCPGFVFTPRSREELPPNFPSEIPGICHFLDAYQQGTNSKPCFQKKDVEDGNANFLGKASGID
Description: I. InCap Cell-Based cGMP Expression Assay
• 10 g of BSA was dissolved in 100 mL of double distilled water (ddH2O) to give 10% BSA.
• 10 mg of DETA-NO was weighed out and dissolved in 12.2 mL of double distilled water (ddH2O) to give 5 mM DETA-NO, which was aliquoted and cryopreserved in a freezer at −20° C.
• a) To 1 mL of a lysis buffer was added 50 μL of cGMP-D2 (D2-labeled cyclic guanosine monophosphate), and the mixture was well mixed. • b) To 1 mL of a lysis buffer was added 50 μL of anti-cGMP cryptate (Eu^3+ cryptate-labeled anti-cyclic guanosine monophosphate antibody), and the mixture was well mixed.
• (1) The compounds were diluted to 5 mM with DMSO, 10 μL of each of the compounds was transferred to a shallow well plate for Echo. • (2) The compounds were serially diluted with Echo. Each of the compounds was diluted to obtain 10 concentration gradients, and 50 nL of each compound at each concentration gradient was added to a 384 microwell plate.
• (1) LNCap medium: RPMI1640+10% fetal bovine serum+1% […]. • (2) Phosphate buffered saline, pancreatin, and the medium used in the process of cell passaging were pre-heated in a water bath at 37° C. • (3) The cells (the 14th generation) were taken out of the 37° C. 5% CO2 incubator, and the old medium was pipetted off the culture flask. • (4) 5 mL of phosphate buffered saline was pipetted into the culture flask to rinse the cells, and then the liquid was discarded. • (5) 3 mL of pancreatin was pipetted into the culture flask. After the culture flask was shaken, the liquid was discarded, and the culture flask was placed in the incubator. • (6) After about 2 min, the culture flask was taken out. […] The cell suspension was transferred to a 50 mL centrifuge tube. • (7) 0.7 mL of the cell suspension was pipetted into a counter cup and the cells were counted on a ViCell XR. […]
• (1) cGMP-D2 was transferred to the 384 microwell plate at 5 μL/well using Bravo. […] The mixtures were centrifuged at 1500 rpm for 1 min. • (3) The plate was incubated at room temperature for 1 h. • (4) 665/615 was read using envision. […]

clearance ([1]; iv 0.3 mg/kg)	half-life ([1]; iv 0.3 mg/kg)	Vd ([1]; iv 0.3 mg/kg, read-out: Vdss)	bioavailability ([1]; po 1 mg/kg)	half-life ([1]; po 1 mg/kg)	AUC0-last, heart [2]	AUC0-last, plasma [2]	MEC of the stimulating activity for sGC (sGC)	SMILES
4.58 mL/min/kg	6.28 h	2.36 L/kg	65%	6.7 h	6970 h*nmol/L or h*nmol/kg	1889 h*nmol/L or h*nmol/kg	214 nM	CO[C@@]12C(=O)Nc3nc(-c4nn(CCC(F)(F)C(F)(F)F)c5ncc(F)cc45)nc(c31)NC(=O)C2(C)C [Compound 006]
							548 nM	CO[C@]12C(=O)Nc3nc(-c4nn(CCC(F)(F)C(F)(F)F)c5ncc(F)cc45)nc(c31)NC(=O)C2(C)C [Compound 007]

SMILES	clearance ([1]; iv 0.3 mg/kg)	half-life ([1]; iv 0.3 mg/kg)	Vd ([1]; iv 0.3 mg/kg, read-out: Vdss)	bioavailability ([1]; po 1 mg/kg)	half-life ([1]; po 1 mg/kg)	AUC0-last, heart [2]	AUC0-last, plasma [2]	MEC of the stimulating activity for sGC (sGC)
CC1(C)C(=O)Nc2nc(-c3nn(Cc4ccccc4F)c4ncc(F)cc34)nc3c2C1(O)C(=O)N3 (stereo not shown) [Compound 016]								19.3 nM

Reference: patent publication US20240409560A1, “PYRIMIDINE TRICYCLIC DERIVATIVE AND PHARMACEUTICAL APPLICATION THEREOF” (CHIA TAI TIANQING PHARMACEUTICAL GROUP CO., LTD., priority 2021, published 2024)
